pIC50: −log10 of the molar value. Where two headings read alike, the source gives them in different places.
How the values were obtained:
[1] = test system: breast cancer in WAPCre/exon20 Pik3ca*/MMTV-Myc mouse; experiment: Micro PET/CT imaging and Ki67 immunohistochemistry of breast tumors in WAPCre/exon20 Pik3ca*/MMTV-Myc mouse; assay type: in vivo
Text: In order to test the in vivo activity of potential anticancer drugs, establishing a corresponding cancer animal model is required. To generate mouse tumors at chosen anatomical sites, a variant of a genetic scheme that is based on Cre/loxP recombination is often used. Depending on the tissue-specificity of the promoter driving Cre expression, corresponding tumors develop in progeny derived from matings between Cre-producer mice and Cre-responder partners carrying a dormant oncogenic transgene, which becomes functional after excision of an upstream-positioned floxed DNA segment that blocks its expression [see Politi et al. Oncogene 23:1558-1565 (2004); Klinakis et al. Proc Natl Acad Sci USA 106:2359-2364 (2009), Stratikopoulos et al. Cancer Cell 27:837-851 (2015)). To develop mouse strains carrying Pik3ca gain of function mutations (hereafter referred to as Pik3ca*), a knock-in gene targeting strategy was followed (Stratikopoulos et al. Cancer Cell 27:837-851 (2015)). Thus, either of the two hotspot mutations of the Pik3ca locus (in exon 20 or in exon 9) was targeted so that the mutated Pik3ca would be expressed from the endogenous locus and not from a transgene, thus, mimicking the expression found in human tumors. Activation of the exon 20 Pik3ca oncogenic mutation was achieved after mating the animals with WAPCre producers (WAP is a milk protein, the promoter of which is used for driving Cre expression, specifically in the mammary gland). Mammary tumors appeared in such animals after a very long latency of 490 days (median). […] These mice were used to test the efficacy of compounds discussed herein.
FIG. 6. Example of micro PET/CT imaging of WAPCre/exon20 Pik3ca*/MMTV-Myc mouse (compared with a negative wild-type control) at the beginning and end of treatment (one month) of breast cancer with the PI3K-010 compound.
PET/CT images of a WAPCre/exon20 Pik3ca*/MMTV-Myc mouse were acquired at the beginning and end of treatment ([…]) of breast cancer with the PI3K-010 compound (cf. FIG. 6). The compound was administered per os (by gavage) at 100 mg/Kg doses. […]

[2] = molecular target: T1, mutant PI3Kα H1047R protein (Homo sapiens, UniProt P42336, H1047R); experiment: In vitro cell-free PI3Kα activity assay using PIP2 containing liposomes (H1047R mutant); assay type: biochemical; settings: for Inhibition selectivity for mutant PI3Kα H1047R compared to wild-type PI3Kα: ratio of IC50 WT / H1047R; for pIC50: logit-log plots, PIP2 liposomes
T1 construct: purchased Millipore
T1 sequence (P42336 whole entry H1047R): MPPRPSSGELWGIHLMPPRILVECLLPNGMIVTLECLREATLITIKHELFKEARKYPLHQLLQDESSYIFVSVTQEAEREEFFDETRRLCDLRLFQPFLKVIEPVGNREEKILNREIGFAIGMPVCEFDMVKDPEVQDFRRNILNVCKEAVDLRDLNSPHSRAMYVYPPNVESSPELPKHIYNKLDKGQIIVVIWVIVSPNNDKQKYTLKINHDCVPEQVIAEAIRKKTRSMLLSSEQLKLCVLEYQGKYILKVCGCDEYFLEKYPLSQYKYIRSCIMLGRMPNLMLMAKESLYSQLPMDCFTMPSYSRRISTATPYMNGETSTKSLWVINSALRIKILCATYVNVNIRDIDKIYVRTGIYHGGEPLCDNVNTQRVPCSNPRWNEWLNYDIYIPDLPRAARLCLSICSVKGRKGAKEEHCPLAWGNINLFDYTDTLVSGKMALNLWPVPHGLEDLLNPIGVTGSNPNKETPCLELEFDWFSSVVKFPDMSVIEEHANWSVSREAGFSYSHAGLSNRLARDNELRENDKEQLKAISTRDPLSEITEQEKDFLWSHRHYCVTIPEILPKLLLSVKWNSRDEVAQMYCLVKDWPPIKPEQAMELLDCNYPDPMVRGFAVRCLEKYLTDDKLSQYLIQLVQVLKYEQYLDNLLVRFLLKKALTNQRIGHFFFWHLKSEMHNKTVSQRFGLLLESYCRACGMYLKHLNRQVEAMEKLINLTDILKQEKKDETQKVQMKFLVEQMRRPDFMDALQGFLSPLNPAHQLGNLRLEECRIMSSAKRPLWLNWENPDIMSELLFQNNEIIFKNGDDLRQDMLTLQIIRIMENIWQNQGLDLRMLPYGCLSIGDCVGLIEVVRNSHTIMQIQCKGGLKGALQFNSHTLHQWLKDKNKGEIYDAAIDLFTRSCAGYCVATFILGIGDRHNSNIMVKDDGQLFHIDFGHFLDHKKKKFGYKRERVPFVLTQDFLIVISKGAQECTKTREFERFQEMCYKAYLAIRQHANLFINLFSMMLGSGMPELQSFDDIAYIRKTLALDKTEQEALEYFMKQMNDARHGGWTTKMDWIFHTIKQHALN
T1 sequence (P27986 whole entry partner): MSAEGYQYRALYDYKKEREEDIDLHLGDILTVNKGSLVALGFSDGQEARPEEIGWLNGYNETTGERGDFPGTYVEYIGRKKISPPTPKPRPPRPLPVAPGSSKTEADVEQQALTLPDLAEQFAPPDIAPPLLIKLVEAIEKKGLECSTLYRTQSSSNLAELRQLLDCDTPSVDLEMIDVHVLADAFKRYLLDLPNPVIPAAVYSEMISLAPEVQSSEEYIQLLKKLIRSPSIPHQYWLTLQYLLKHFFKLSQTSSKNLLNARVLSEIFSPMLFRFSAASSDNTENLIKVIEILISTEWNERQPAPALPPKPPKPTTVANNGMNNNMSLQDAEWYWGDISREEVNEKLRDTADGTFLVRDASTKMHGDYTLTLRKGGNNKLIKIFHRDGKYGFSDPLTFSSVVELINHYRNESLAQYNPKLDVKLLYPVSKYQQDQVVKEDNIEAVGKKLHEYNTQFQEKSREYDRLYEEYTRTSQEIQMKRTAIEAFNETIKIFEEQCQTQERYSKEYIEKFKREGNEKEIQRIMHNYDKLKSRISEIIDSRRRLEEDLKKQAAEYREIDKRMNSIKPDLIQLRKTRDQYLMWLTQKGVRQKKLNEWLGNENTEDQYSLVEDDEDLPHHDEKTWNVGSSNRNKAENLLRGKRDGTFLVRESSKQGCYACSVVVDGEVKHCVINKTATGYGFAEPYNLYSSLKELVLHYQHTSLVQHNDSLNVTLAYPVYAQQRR
Protocol: PI3Kα activity assays on the identified lead compound and its analogs were performed using PIP2 containing liposomes (Gkeka et al., PLoS Comput Biol 10:e1003895 (2014)). Complexes of PIK3CA (WT or […])/PIK3R1 were obtained from Millipore. The assay was based on a protocol provided by Millipore, with modifications (Papafotika et al., in preparation) which will be further described below. In this assay, PIP3 molecules produced by PI3Kα compete with biotinylated PIP3 for binding with a recombinant GST-GRP1-PH domain (amino acids 263-380), which has been produced in bacteria, bound to glutathione coated 96-well plates. Quantitation of the competed amount of biotin-PIP3 is estimated by the peroxidase activity of streptavidin-HRP that binds to the plate and provides a measure for the activity of the protein. The compounds were preincubated with all the components of the assay mixture, except PIP2, for 10 min, at 25° C. PIP2 is added in the end of the preincubation period, thereby initiating the kinase reaction. IC50 values were calculated from dose-response curves using logit-log plots. All assays were carried out in at least three independent experiments and each concentration in triplicate. PIK-108 and wortmannin were used as controls (Gkeka et al., J Phys Chem B 119:1002-1016 (2015)).
To evaluate the in vitro activity of the compound having the formula (II) (PI3K-010), PI3Kα activity assays were performed using PIP2 containing liposomes (Gkeka et al PLOS Comp Biol 2014). In this assay, PIP3 molecules produced by PI3Kα compete with biotinylated PIP3 for binding to recombinant GST-GRP1-PH domain (amino acids 263-380), which has been produced in bacteria, bound to glutathione coated 96-well plates. Quantitation of the competed amount of biotin-PIP3 is estimated by the peroxidase activity of streptavidin-HRP that binds to the plate and provides a measure for the activity of the protein. The compounds were preincubated with all the components of the assay mixture, except PIP2, for 10 min, at 25° C. […]
(§1) To evaluate the in vitro activity of the compound having the formula (III) (PI3K-010), PI3Kα activity assays were performed using PIP2 containing liposomes (Gkeka et al PLOS Comp Biol 2014). […] Quantitation of the competed amount of biotin-PIP3 is estimated by the peroxidase activity of streptavidin-HRP that binds to the plate and provides a measure for the activity of the protein. […]
as §1, with “(IV) (PI3K-024),” for “(III) (PI3K-010),”

[3] = molecular target: T2, wild type PI3Kα protein (Homo sapiens, UniProt P42336); experiment: In vitro cell-free PI3Kα activity assay using PIP2 containing liposomes (wild type); assay type: biochemical
T2 construct: purchased Millipore
T2 sequence (P42336 whole entry): as the sequence (P42336 whole entry H1047R) above, with R1047H counted along it
T2 sequence (P27986 whole entry partner): as the sequence (P27986 whole entry partner) above

Row | Compound | Proliferation index (Ki67 immunohistochemistry) after treatment ([1]; 100 mg/Kg per os by gavage, surgically removed breast tumors, controls 69.9+5.1%) | Uptake of 18F-FDG by remnants of breast cancer (PET/CT) ([1]; 100 mg/Kg per os, beginning vs end of treatment (two weeks)) | Immunohistochemical analysis: tumor necrosis after treatment ([1]; 100 mg/Kg per os, in comparison with the controls) | Inhibition selectivity for mutant PI3Kα H1047R compared to wild-type PI3Kα [2] [fold] | pIC50 ([3]; extrapolated, very low inhibition at the highest tested concentrations, read-out: IC50 for the WT PI3Kα, estimated by extrapolation) | pIC50 ([2]; read-out: IC50 for the mutant H1047R PI3Kα) | pIC50 ([3]; logit-log plots, 100 μM ATP, PIP2 liposomes, read-out: IC50 against WT PI3Kα) | pIC50 ([2]; 100 μM ATP, read-out: IC50 against mutant H1047R PI3Kα)
1 | c1cc(CSc2nc3ccccc3[nH]2)nc(CSc2nc3ccccc3[nH]2)c1 [PI3K-010, 2,6-bis(((1H-benzo[d]imidazol-2-yl)thio)methyl)pyridine] | 15.0+3.3% | diminished uptake | tumor necrosis | 11 |  |  |  | 
2 | O=C(NCc1ccccc1)c1cccc(C(=O)NCc2ccccc2)n1 [PI3K-021, N^2,N^6-dibenzylpyridine-2,6-dicarboxamide] |  |  |  | > 100 | < 3.00 | 4.87 |  | 
3 | O=C(Nc1cccc(O)c1)c1cccc(C(=O)Nc2cccc(O)c2)n1 [PI3K-024, N^2,N^6-bis(3-hydroxyphenyl)pyridine-2,6-dicarboxamide] |  |  |  |  |  |  | 8.22 | 7.19
